Experimental data: patent US4946941A, “Novel glycopeptide antibiotics” (Shionogi & Co., Ltd., priority 1986, dated 1990)
Converted amounts (≈) assume the structure as drawn.

How the values were obtained:
[1] = system: Staphylococcus aureus FDA 209F JC-1; assay: In vitro antibacterial activity, agar dilution method (MIC); format: cell-based; details: 37° C., 18-20 hrs
Method: (§1) In vitro antibacterial activity was determined by the agar dilution method as described below.
(§2) One loopful of each test bacterium on a slant was inoculated into 1 ml of a growth medium (Trypto Soy Broth, Eiken Chemical Co.) and incubated at 37° C. for 18-20 hours. For the growth of Streptococci, Mueller-Hinton broth (Difco) supplemented with 3%(V/V) horse serum was employed. A hundred-fold dilution of the culture is used as an inoculum suspension of the bacterium.
(§3) The sample (9-10 mg) was weighed and dissolved in distilled water at a concentration of 2 mg/ml.
(§4) A sample solution was subjected to serial two fold dilutions with sterile water (2000-0.25 μg/ml). To sterile plastic petri dishes (9 cm in diameter) was poured 0.5 ml-aliquot of sample solutions, which was mixed with 9.5 ml of an agar medium (Sensitivity Test Agar, "Nissui"). For Streptococci, horse serum was supplied at 0.5%(V/V).
(§5) One loopful (1.0 μl) of the inoculum suspension was placed on the surface of the agar plates prepared as noted above. The bacterial growth was examined visually after overnight incubation (18-20 hrs) at 37° C.

[2] = system: Staphylococcus aureus SR14 (penicillin resistant); assay: as above; format: cell-based; details: 37° C., 18-20 hrs
Method: as §1, §2, §3, §4, §5

[3] = system: Staphylococcus aureus SR1626 (methicillin resistant); assay: as above; format: cell-based; details: 37° C., 18-20 hrs
Method: as §1, §2, §3, §4, §5

[4] = system: Staphylococcus aureus SR3626 (methicillin resistant); assay: as above; format: cell-based; details: 37° C., 18-20 hrs
Method: as §1, §2, §3, §4, §5

[5] = system: Streptococcus pyogenes C-203; assay: as above; format: cell-based; details: agar dilution with 0.5% horse serum, 37° C., 18-20 hrs
Method: as §1, §2, §3, §4, §5

[6] = system: Staphylococcus aureus ATCC 25923; assay: as above; format: cell-based; details: 37° C., 18-20 hrs
Method: as §1, §2, §3, §4, §5

[7] = system: Staphylococcus aureus 3131 (methicillin resistant); assay: as above; format: cell-based; details: 37° C., 18-20 hrs
Method: as §1, §2, §3, §4, §5

[8] = system: Micrococcus luteus ATCC 9341; assay: as above; format: cell-based; details: 37° C., 18-20 hrs
Method: as §1, §2, §3, §4, §5

[9] = system: Streptococcus faecalis SR1004; assay: as above; format: cell-based; details: agar dilution with 0.5% horse serum, 37° C., 18-20 hrs
Method: as §1, §2, §3, §4, §5

[10] = system: Streptococcus pneumoniae Type I; assay: as above; format: cell-based; details: agar dilution with 0.5% horse serum, 37° C., 18-20 hrs
Method: as §1, §2, §3, §4, §5

[11] = system: Streptococcus agalactica SR1247; assay: as above; format: cell-based; details: agar dilution with 0.5% horse serum, 37° C., 18-20 hrs
Method: as §1, §2, §3, §4, §5

[12] = system: Staphylococcus aureus SMITH; assay: as above; format: cell-based; details: 37° C., 18-20 hrs
Method: as §1, §2, §3, §4, §5

[13] = system: Streptoccus pyogenes C-302; assay: Protective test in mice (in vivo antibacterial activity); details: Streptoccus pyogenes C-302 i.p. challenge, Slc-ICR female mice; s.c. 1 and 5 hours post-infection; survival on day 7
Method: (§6) Method: Test bacterium is intraperitoneally challenged to Slc-ICR female mice (8 mice/group), to which PA-42867-A and des-(4-epi-vancosaminyl) PA-42867-A (serial two fold dilution) are subcutaneously administered 1 and 5 hours post-infection.
(§7) Result: ED50 (50% effective dose) is calculated from survival rate of mice on day 7 after the infection.

[14] = system: Staphylococcus aureus SR2030 (methicillin-resistant); assay: as above; details: Staphylococcus aureus SR2030 (methicillin-resistant) i.p. challenge, Slc-ICR female mice; s.c. 1 and 5 hours post-infection; survival on day 7
Method: as §6, §7

[15] = system: Streptococcus pneumoniae Type I; assay: as above; details: Streptococcus pneumoniae Type I i.p. challenge, Slc-ICR female mice; s.c. 1 and 5 hours post-infection; survival on day 7
Method: as §6, §7

[16] = system: Staphylococcus aureus SMITH; assay: as above; details: Staphylococcus aureus SMITH i.p. challenge, Slc-ICR female mice; s.c. 1 and 5 hours post-infection; survival on day 7
Method: as §6, §7

[17] = Solubility (physicochemical property)
[18] = in ether, benzene, chloroform and ethyl acetate

Structure (SMILES) | MIC [1] [µg/mL] | MIC [2] [µg/mL] | MIC [3] [µg/mL] | MIC [4] [µg/mL] | MIC [5] [µg/mL] | MIC [6] [µg/mL] | MIC [7] [µg/mL] | MIC [8] [µg/mL] | MIC [9] [µg/mL] | MIC [10] [µg/mL] | MIC [11] [µg/mL] | MIC [12] [µg/mL] | ED50 (50% effective dose) [13] [mg/kg/dose] | ED50 (50% effective dose) [14] [mg/kg/dose] | ED50 (50% effective dose) [15] [mg/kg/dose] | ED50 (50% effective dose) [16] [mg/kg/dose] | Solubility ([17]; in alcohol) | Solubility [17, 18] | Solubility ([17]; in water and dimethylsulfoxide)
CN[C@H](CC(C)C)C(=O)N[C@H]1C(=O)N[C@@H](CC(N)=O)C(=O)N[C@H]2C(=O)N[C@H]3C(=O)N[C@H](C(=O)N[C@H](C(=O)O)c4cc(O)cc(O)c4-c4cc3ccc4O)[C@H](O[C@H]3C[C@](C)(N)[C@@H](O)[C@H](C)O3)c3ccc(c(Cl)c3)Oc3cc2cc(c3O)Oc2ccc(cc2)[C@H]1O [Compd. D, des-(4-epi-vancosaminyl-O-glucosyl)-PA-42867-A] | 0.78 (≈ 0.623 µM) | 0.78 (≈ 0.623 µM) | 0.78 (≈ 0.623 µM) | 0.78 (≈ 0.623 µM) | 0.39 (≈ 0.311 µM) | 1.56 (≈ 1.25 µM) | 0.78 (≈ 0.623 µM) | 0.78 (≈ 0.623 µM) | 0.78 (≈ 0.623 µM) | 0.78 (≈ 0.623 µM) | 0.78 (≈ 0.623 µM) | 0.78 (≈ 0.623 µM) |  |  |  |  |  |  | 
CN[C@H](CC(C)C)C(=O)N[C@H]1C(=O)N[C@@H](CC(N)=O)C(=O)N[C@H]2C(=O)N[C@H]3C(=O)N[C@H](C(=O)N[C@H](C(=O)O)c4cc(O)cc(O)c4-c4cc3ccc4O)[C@H](O[C@H]3C[C@](C)(N)[C@@H](O)[C@H](C)O3)c3ccc(c(Cl)c3)Oc3cc2cc(c3O[C@@H]2O[C@H](CO)[C@@H](O)[C@H](O)[C@H]2O)Oc2ccc(cc2)[C@H]1O [Compd. C, des-(4-epi-vancosaminyl)-PA-42867-A] | 0.78 (≈ 0.551 µM) | 1.56 (≈ 1.1 µM) | 1.56 (≈ 1.1 µM) | 1.56 (≈ 1.1 µM) | 0.78 (≈ 0.551 µM) | 1.56 (≈ 1.1 µM) | 1.56 (≈ 1.1 µM) | 0.78 (≈ 0.551 µM) | 1.56 (≈ 1.1 µM) | 0.78 (≈ 0.551 µM) | 0.78 (≈ 0.551 µM) | 1.56 (≈ 1.1 µM) | 1.43 | 2.91 | 2.11 | 1.47 |  |  | 
CN[C@H](CC(C)C)C(=O)N[C@H]1C(=O)N[C@@H](CC(N)=O)C(=O)N[C@H]2C(=O)N[C@H]3C(=O)N[C@H](C(=O)N[C@H](C(=O)O)c4cc(O)cc(O)c4-c4cc3ccc4O)[C@H](O[C@H]3C[C@](C)(N)[C@@H](O)[C@H](C)O3)c3ccc(c(Cl)c3)Oc3cc2cc(c3O[C@@H]2O[C@H](CO)[C@@H](O)[C@H](O)[C@H]2O[C@H]2C[C@H](O)[C@@H](O)[C@H](C)O2)Oc2ccc(cc2)[C@H]1O [Compd. B, PA-42867-B] | 1.56 (≈ 1.01 µM) | 1.56 (≈ 1.01 µM) | 1.56 (≈ 1.01 µM) | 1.56 (≈ 1.01 µM) | 0.78 (≈ 0.505 µM) | 3.13 (≈ 2.03 µM) | 1.56 (≈ 1.01 µM) | 1.56 (≈ 1.01 µM) | 3.13 (≈ 2.03 µM) | 0.78 (≈ 0.505 µM) | 0.78 (≈ 0.505 µM) | 3.13 (≈ 2.03 µM) |  |  |  |  | Slightly soluble | Insoluble | Soluble
CN[C@H](CC(C)C)C(=O)N[C@H]1C(=O)N[C@@H](CC(N)=O)C(=O)N[C@H]2C(=O)N[C@H]3C(=O)N[C@H](C(=O)N[C@H](C(=O)O)c4cc(O)cc(O)c4-c4cc3ccc4O)[C@H](O[C@H]3C[C@](C)(N)[C@@H](O)[C@H](C)O3)c3ccc(c(Cl)c3)Oc3cc2cc(c3O[C@@H]2O[C@H](CO)[C@@H](O)[C@H](O)[C@H]2O[C@H]2C[C@](C)(N)[C@@H](O)[C@H](C)O2)Oc2ccc(cc2)[C@H]1O [Compd. A, PA-42867-A] | 0.39 (≈ 0.25 µM) | 0.78 (≈ 0.501 µM) | 0.78 (≈ 0.501 µM) | 0.78 (≈ 0.501 µM) | 0.39 (≈ 0.25 µM) | 0.78 (≈ 0.501 µM) | 0.78 (≈ 0.501 µM) | 0.39 (≈ 0.25 µM) | 1.56 (≈ 1 µM) | 0.39 (≈ 0.25 µM) | 0.39 (≈ 0.25 µM) | 0.78 (≈ 0.501 µM) | 0.64 | 2.31 | 0.90 | 0.62 | Slightly soluble | Insoluble | Soluble
